Measurements as given in PMC11052071, “Novel JAK Inhibitors to Reduce Graft-Versus-Host Disease after Allogeneic Hematopoietic Cell Transplantation in a Preclinical Mouse Model” (Molecules, 2024).
Where two headings read alike, the source gives them in different places.

Experiments:
[1] = target: TYK2 (Homo sapiens, UniProt P29597); assay: Z'-LYTE enzyme activity assay (SelectScreen Kinase Profiling), TYK2
[2] = cited from earlier work; for terminal plasma half-life: human
[3] = human; cited from earlier work
[4] = tested on: GvHD; assay: Preclinical mouse model of allo-HCT (GvHD); format: in vivo, Balb/c recipient mice
Excerpt: To determine the potential of WU4 and WU8 in preventing GvHD, we performed allo-HCT in which 5 × 10^6 T cell-depleted bone marrow (TCD-BM; CD45.1+) and 5 × 10^5 splenic pan T cells (CD45.2+) obtained from B6 mice were transplanted into lethally irradiated (900 cGy on day −1) Balb/c allogeneic recipient mice on day 0. […]. […] Among monocyte subsets, we only considered classical (LyG6^−CD11b^+Ly6C^high) and intermediate monocytes (LyG6^−CD11b^+Ly6C^middle) as APCs, excluding non-classical monocytes (LyG6^−CD11b^+Ly6C^low) due to their anti-inflammatory function, which downregulates antigen presentation during inflammation. […]
Figure 5 In vivo administration of WU4 and WU8 reduces GvHD by increasing % of Tregs while suppressing % of APCs and costimulatory proteins on APCs after allo-HCT. Allo-HCT was performed as follows: 5 × 10^6 TCD-BM (CD45.1+) and 5 × 10^5 splenic T cells (CD45.2+) obtained from B6 mice were transplanted on day 0 into lethally irradiated (900 cGy on day −1) Balb/c allogeneic recipient mice. TCD-BM-only group served as a no-GvHD control. […] (A,B) The mice were monitored for survival and GvHD signs. (C–F) Whole splenocytes were analyzed for % of Tregs, recipient/BM-derived APCs, and CD80-expressing APCs on day 6 after allo-HCT. LyG6^−CD11b^+Ly6C^high and LyG6^−CD11b^+Ly6C^middle served as classical and intermediate monocyte subsets. NT: neutrophils. * p < 0.05, ** p < 0.01, and *** p < 0.001. All error bars are represented as mean ± standard deviation.
Allo-HCT was performed as previously described. Briefly, BALB/c mice were used as recipients and received 9 Gy total body irradiation on day −1, then were transplanted with 5 × 10^6 T cell-depleted bone marrow (TCD-BM) cells from B6 (CD45.1+) mice along with 0.5 × 10^6 splenic T cells from B6 (CD45.2+) mice on day 0. Mouse TCD-BM and splenic T cells were prepared using an EasySep mouse CD90.2 positive selection kit II and an EasySep mouse T cell isolation kit ([…] Technologies, Cambridge, MA, USA), respectively.
GvHD clinical scores were assessed twice per week by a scoring system incorporating five clinical criteria: weight loss (diarrhea scored 1 regardless of weight change), posture (hunching), mobility, fur texture, and skin integrity, as previously described. Individual mice were scored from 0 to 2 for each criterion and were sacrificed with GvHD scores of 6 or above, following our approved animal protocol.
T cells from in vitro primary murine T cell culture, fresh peripheral blood, or whole splenocytes were analyzed according to cell surface and intracellular markers. Surface markers were directly stained with flow antibodies for 20 min at 4 °C. For intracellular staining (FOXP3 and T-bet), cells were fixed and permeabilized after surface staining using appropriate buffers (One-step intracellular nuclear protein staining protocol, eBioscience, San Diego, CA, USA) and stained with flow antibodies. The antibodies used for flow cytometric analyses for mouse cells were as follows: FOXP3, T-BET, and CD183 (eBioscience, San Diego, CA, USA); CD3, H2-Kb, H2-Kd, CD4, B220, CD11b, CD11c, Ly6C, and DEC205 (BioLegend, San Diego, CA); and CD8, CD45.2, CD80, and Ly6G (BD Pharmingen, San Jose, CA, USA). All cells were run on a ZE5 Cell Analyzer (BD Biosciences, Mountain View, CA, USA) or Attune® NxT (Thermofisher Scientific, Waltham, MA, USA) and analyzed with the FlowJo software, version 10.9.0 (FlowJo LLC., Ashland, OR, USA).

[5] = tested on: PKN1; settings: murine and human whole-kinome analyses; cited from earlier work
[6] = target: JAK2 (Homo sapiens, UniProt O60674); assay: Z'-LYTE enzyme activity assay (SelectScreen Kinase Profiling), JAK2
Chain of JAK2 (O60674 whole entry): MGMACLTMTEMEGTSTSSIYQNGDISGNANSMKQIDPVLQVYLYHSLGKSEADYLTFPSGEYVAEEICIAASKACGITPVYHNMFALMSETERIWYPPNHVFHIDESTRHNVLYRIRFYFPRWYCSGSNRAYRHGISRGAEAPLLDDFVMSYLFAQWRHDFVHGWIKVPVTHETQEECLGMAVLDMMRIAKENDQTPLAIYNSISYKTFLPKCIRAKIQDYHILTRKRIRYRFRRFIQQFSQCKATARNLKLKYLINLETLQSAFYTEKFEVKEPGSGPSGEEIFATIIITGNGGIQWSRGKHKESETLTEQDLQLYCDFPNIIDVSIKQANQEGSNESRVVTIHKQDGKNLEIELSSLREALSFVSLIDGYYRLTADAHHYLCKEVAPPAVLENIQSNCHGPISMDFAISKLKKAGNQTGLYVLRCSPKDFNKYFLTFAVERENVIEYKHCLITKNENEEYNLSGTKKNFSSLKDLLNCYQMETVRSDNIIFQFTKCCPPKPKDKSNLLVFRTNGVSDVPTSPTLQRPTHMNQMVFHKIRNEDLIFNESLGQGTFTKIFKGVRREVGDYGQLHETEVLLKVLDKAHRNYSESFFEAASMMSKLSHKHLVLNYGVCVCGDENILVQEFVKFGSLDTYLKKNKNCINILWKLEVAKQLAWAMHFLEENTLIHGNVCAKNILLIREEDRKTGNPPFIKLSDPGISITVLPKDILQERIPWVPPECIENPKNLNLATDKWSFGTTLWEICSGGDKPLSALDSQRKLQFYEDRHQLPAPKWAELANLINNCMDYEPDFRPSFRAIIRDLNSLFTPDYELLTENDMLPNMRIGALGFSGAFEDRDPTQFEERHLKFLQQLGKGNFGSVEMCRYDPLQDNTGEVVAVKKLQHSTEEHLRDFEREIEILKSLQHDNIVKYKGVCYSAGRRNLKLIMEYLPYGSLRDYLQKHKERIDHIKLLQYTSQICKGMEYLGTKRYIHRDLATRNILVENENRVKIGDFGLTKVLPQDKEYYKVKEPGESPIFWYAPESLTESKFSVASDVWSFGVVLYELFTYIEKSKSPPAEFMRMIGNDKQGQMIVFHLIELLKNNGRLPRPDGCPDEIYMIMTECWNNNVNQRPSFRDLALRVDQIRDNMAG

[7] = target: T1, JAK3 (Homo sapiens, UniProt P52333); assay: Z'-LYTE enzyme activity assay (SelectScreen Kinase Profiling), JAK3
T1 sequence (P52333 1-1124): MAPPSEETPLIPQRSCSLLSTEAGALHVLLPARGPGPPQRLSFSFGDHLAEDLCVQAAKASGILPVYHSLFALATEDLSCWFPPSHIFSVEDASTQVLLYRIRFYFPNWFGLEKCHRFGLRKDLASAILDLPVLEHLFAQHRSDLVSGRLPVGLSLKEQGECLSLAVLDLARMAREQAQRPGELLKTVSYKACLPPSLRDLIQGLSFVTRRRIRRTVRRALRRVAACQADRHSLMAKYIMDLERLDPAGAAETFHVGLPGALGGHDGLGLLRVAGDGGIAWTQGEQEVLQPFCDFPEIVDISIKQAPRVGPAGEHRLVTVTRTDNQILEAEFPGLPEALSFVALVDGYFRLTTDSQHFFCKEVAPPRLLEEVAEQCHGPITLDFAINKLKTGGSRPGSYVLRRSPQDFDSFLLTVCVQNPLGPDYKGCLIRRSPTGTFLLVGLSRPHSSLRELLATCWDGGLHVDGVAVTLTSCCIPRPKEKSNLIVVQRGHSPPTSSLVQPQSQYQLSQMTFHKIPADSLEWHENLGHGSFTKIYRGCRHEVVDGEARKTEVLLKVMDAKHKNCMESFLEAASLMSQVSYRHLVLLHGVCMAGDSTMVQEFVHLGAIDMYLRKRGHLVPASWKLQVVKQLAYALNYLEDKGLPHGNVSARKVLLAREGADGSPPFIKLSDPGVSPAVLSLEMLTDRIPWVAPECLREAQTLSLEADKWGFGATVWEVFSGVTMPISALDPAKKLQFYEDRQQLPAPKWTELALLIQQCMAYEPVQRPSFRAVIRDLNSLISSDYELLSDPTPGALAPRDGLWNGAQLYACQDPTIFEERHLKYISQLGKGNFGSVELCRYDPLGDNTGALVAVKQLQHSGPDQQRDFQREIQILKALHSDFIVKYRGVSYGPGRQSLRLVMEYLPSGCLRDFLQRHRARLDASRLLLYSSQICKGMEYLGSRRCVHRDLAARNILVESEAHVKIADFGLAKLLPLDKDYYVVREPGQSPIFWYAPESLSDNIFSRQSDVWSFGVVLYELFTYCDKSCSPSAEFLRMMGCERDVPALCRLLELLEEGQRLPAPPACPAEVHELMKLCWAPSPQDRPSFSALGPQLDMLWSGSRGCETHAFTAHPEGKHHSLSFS

[8] = target: JAK1 (Homo sapiens, UniProt P23458); assay: Z'-LYTE enzyme activity assay (SelectScreen Kinase Profiling), JAK1
Chain of JAK1 (P23458 whole entry): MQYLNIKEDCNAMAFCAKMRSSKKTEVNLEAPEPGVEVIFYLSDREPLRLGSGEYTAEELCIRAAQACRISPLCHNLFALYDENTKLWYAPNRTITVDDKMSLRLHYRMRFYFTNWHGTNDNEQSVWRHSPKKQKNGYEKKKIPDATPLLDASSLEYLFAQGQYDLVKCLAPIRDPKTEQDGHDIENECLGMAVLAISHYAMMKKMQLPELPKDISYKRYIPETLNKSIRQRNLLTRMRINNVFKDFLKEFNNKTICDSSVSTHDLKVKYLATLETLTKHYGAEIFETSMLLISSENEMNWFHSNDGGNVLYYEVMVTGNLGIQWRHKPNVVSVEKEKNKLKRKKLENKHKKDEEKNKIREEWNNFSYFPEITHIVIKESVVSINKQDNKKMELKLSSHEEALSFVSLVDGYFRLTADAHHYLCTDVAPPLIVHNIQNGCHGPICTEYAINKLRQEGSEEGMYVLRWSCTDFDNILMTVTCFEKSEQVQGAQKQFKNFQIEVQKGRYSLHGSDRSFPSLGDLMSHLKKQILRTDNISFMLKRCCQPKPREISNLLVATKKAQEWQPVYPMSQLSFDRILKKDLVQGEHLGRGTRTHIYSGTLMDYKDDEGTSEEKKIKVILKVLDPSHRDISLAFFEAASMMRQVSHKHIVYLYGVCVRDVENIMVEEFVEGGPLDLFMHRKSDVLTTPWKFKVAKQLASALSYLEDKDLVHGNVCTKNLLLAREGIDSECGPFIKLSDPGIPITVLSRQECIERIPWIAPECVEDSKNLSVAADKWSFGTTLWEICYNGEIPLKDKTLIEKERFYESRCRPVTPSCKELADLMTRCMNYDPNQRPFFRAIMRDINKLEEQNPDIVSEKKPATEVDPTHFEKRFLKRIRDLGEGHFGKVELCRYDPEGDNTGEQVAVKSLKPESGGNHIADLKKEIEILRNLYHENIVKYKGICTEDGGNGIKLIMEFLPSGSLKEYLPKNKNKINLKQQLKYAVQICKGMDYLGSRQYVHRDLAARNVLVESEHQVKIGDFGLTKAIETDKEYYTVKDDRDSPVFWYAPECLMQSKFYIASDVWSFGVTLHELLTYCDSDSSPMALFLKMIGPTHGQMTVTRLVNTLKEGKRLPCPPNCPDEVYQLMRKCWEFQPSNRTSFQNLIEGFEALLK

[9] = Mouse PK after subcutaneous injection; format: in vivo; settings: 2 mg/kg s.c., CD-1 mice, time points up to 6 h; WU derivatives compared to BARI
[10] = Human liver microsome (HLM) assay; format: in vitro ADME; settings: incubations with human liver microsomes
Protocol: Subsequently, we assessed the in vitro metabolic stability and clearance values of WU derivatives in an HLM assay.
(A,B) Mouse PK following subcutaneous administration of WU derivatives (2 mg/kg) to CD-1 mice. […] All error bars are represented as mean ± standard deviation.
Mouse PK and in vitro human liver microsome (HLM) assay studies were conducted by Charles River Laboratories, Inc. (Wilmington, MA, USA). Briefly, male CD-1 mice were used in mouse PK studies. […] At 24 h, no drug levels were detected in plasma for any of the compounds tested. In addition, WU derivatives were evaluated in an in vitro HLM assay to determine the intrinsic human liver microsomal clearance values of compounds in incubations with human liver microsomes.

[11] = 4 mg/kg s.c. once daily for 3 weeks from day 3, vs vehicle control
[12] = 20 mg/kg s.c. once daily for 3 weeks from day 3, vs vehicle control
[13] = dose not given, vs vehicle control

Chain of TYK2 (P29597 whole entry): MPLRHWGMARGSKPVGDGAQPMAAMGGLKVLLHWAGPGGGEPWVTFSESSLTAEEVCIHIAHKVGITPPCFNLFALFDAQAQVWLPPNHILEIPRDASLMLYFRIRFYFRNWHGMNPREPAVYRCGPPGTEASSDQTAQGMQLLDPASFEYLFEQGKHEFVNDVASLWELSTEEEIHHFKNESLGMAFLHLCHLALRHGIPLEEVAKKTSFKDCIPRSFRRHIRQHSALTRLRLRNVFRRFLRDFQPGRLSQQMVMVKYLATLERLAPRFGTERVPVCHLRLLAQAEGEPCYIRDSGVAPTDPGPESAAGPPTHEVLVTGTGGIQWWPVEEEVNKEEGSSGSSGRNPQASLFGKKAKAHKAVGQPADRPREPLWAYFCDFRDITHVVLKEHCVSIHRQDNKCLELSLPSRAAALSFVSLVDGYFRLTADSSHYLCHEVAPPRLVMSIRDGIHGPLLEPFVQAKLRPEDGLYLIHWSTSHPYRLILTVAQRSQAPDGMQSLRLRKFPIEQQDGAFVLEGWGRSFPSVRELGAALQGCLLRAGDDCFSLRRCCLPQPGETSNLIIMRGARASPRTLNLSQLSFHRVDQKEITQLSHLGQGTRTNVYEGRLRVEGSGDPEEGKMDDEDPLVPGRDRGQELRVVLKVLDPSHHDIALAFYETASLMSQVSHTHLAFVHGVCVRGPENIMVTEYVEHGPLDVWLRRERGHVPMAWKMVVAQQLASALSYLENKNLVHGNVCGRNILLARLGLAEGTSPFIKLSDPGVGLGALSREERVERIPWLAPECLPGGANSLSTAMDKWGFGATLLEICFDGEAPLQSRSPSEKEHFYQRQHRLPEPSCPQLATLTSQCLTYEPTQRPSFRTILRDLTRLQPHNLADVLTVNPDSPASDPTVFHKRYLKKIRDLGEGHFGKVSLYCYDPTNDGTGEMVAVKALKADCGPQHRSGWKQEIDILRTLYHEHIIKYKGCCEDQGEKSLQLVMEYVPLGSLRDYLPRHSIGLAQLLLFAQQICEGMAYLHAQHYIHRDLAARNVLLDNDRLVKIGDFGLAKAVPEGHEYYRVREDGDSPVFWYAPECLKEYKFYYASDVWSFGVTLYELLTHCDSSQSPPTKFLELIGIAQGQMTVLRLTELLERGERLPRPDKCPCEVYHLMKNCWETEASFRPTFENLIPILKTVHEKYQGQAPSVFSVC

Structure (SMILES) | IC50 ([1]; IC50 TYK2, ATP at 1 mM) [nM] | IC50 ([1]; IC50 TYK2, ATP at app. Km) [nM] | IC50 ([6]; IC50 JAK2, ATP at app. Km) [nM] | IC50 ([7]; IC50 JAK3, ATP at app. Km) [nM] | IC50 ([6]; IC50 JAK2, ATP at 1 mM) [nM] | IC50 ([7]; IC50 JAK3, ATP at 1 mM) [nM] | other results
CCS(=O)(=O)N1CC(CC#N)(n2cc(-c3ncnc4[nH]ccc34)cn2)C1 [BARI, baricitinib, reference compound] | 42.3 | 2.21 |  |  |  |  | terminal plasma half-life ([2]; in vivo): ~ 8.5 h; metabolism (extent) ([2]; in vivo): very little metabolism; plasma protein binding [3]: 50%; clinical GvHD scores [4, 11]: less clinical GvHD scores; overall survival [4, 11]: significantly improved survival rate; clinical GvHD scores [4, 12]: less clinical GvHD scores; overall survival [4, 12]: significantly improved survival rate
N#CC[C@H](C1CCCC1)n1cc(-c2ncnc3[nH]ccc23)cn1 [RUX, Ruxolitinib] |  |  |  |  |  |  | metabolism (extent) ([2]; RUX mostly in the liver via CYP(3A4)): > 99%; terminal plasma half-life ([2]; in vivo): ~ 2 h; inhibition of off target PKN1 [5]: not by RUX; plasma protein binding [3]: 97%
CCS(=O)(=O)N1CC2(C1)CC(CC#N)(n1cc(-c3ncnc4[nH]ccc34)cn1)C2 [WU1] |  | 29.4 | 8.22 | 60.8 |  |  | 
CCS(=O)(=O)N1CCC12CC(CC#N)(n1cc(-c3ncnc4[nH]ccc34)cn1)C2 (stereo not drawn) [WU2] |  | 574 | 54.2 | 418 |  |  | 
CCS(=O)(=O)N1CC2(CCC2(CC#N)n2cc(-c3ncnc4[nH]ccc34)cn2)C1 (stereo not drawn) [WU3] |  | 578 | 35.1 | 36.2 |  |  | 
CC(C)(C)NS(=O)(=O)NC1CC2(C1)CC(CC#N)(n1cc(-c3ncnc4[nH]ccc34)cn1)C2 (stereo not drawn) [WU5] | 58.9 | 3.11 | 0.45 | 11.2 | 9.88 | 623 | % of donor BM-derived B and T cells in the peripheral blood ([4]; dose not given, day 27 after allo-HCT, vs vehicle control): increased the % of donor BM-derived B and T cells; clinical GvHD scores [4, 13]: less clinical GvHD scores; overall survival [4, 13]: significantly improved overall survival; IC50 ([8]; IC50 JAK1, ATP at 1 mM): 8.2 nM; IC50 ([8]; IC50 JAK1, ATP at app. Km): 1.47 nM
CCS(=O)(=O)N1CCC2(CC1)CCC(CC#N)(n1cc(-c3ncnc4[nH]ccc34)cn1)CC2 [WU7] | 275 | 12.1 | 0.867 | 12.3 | 13.8 | 423 | plasma drug concentration (mouse PK) [9]: significant reduction in plasma concentration at 2 h after injection; in vitro metabolic stability in HLM [10]: diminished HLM metabolic stability
N#CCC1(n2cc(-c3ncnc4[nH]ccc34)cn2)CS(=O)(=O)C1 [WU9] | 34.7 | 2.24 | 0.406 | 10.4 | 9.67 | 501 | 
CS(=O)(=O)C1CC(CC#N)(n2cc(-c3ncnc4[nH]ccc34)cn2)C1 (stereo not drawn) [WU10] | 108 | 4.56 | 0.37 | 13 | 6.11 | 496 | % of Tregs in the spleens ([4]; dose not given, day 6 after allo-HCT, vs vehicle control): significantly increased the % of Tregs; clinical GvHD scores [4, 13]: reduced GvHD; overall survival [4, 13]: trend towards increased overall survival; blood cell recovery (lymphocytes and white blood cells) ([4]; dose not given, whole blood, day 27 after allo-HCT): trend towards improvement in blood cell recovery
